Activity calls are given as the source filed them.
Columns and labels:
[1] = inhibitors of firefly luciferase expression or activity, dose response, H4 neuroglioma cells, luminescence (AID 1990); type: functional, cell-based
[2] = Luminescence Cell-Based Dose Response HTS to Identify Inhibitors of 5'UTR Stem-Loop Driven Prion Protein mRNA Translation in H4 Neuroglioblastoma Cells. [Related pubchem assays: 1827 (Project Summary), 1813 (Primary HTS)]; type: functional
[3] = inhibitors of SNCA 5'UTR-driven reporter translation, confirmation, H4 neuroglioma cells, luminescence (AID 1988); type: functional, cell-based
H9c2 = test: cells; type: functional, cell-based; conditions: Rattus norvegicus, H9c2, Myocardium;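 further: confirmatory concentration-response retest of ultra-high-throughput screening hits for modulation of myocardial damage; cell death induced by hydrogen peroxide oxidative stress; compound pretreatment for 60 min then peroxide exposure for 2 h; potency is for protecting the cells against peroxide damage rather than for killing them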
[4] = target: T1, Corticotropin-releasing factor receptor 2/Corticotropin-releasing factor-binding protein (Homo sapiens, UniProt P24387+Q13324); test: Dose Response confirmation of uHTS hits for small molecule antagonists of the CRF-binding protein and CRF-R2 receptor complex.; type: functional; conditions: read-out: IC50_Mean
T1 sequence (Q13324 whole entry): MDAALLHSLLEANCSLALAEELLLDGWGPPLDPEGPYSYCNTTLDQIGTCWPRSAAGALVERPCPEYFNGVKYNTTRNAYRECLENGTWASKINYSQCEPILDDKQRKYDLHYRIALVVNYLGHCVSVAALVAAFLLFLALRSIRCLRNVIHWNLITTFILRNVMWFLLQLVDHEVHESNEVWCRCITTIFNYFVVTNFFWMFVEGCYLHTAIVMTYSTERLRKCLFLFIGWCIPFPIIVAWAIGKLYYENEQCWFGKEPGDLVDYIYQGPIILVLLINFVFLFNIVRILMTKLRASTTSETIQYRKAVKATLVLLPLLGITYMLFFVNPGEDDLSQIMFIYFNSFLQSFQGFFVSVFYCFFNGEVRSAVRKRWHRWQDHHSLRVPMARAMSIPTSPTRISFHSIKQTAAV
T1 sequence (P24387 whole entry): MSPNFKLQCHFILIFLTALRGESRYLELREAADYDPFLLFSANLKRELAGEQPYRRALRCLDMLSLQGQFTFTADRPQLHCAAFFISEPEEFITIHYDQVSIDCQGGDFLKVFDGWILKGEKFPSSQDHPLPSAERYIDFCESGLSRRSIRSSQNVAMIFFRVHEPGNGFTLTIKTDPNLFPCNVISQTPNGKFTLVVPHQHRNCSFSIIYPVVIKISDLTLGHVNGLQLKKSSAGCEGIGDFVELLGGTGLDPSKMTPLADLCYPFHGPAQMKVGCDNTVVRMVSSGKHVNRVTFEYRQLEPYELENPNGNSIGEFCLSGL

[5] = target: T1, Corticotropin-releasing factor receptor 2/Corticotropin-releasing factor-binding protein; test: activators of CRF receptor 2 with binding protein – uHTS hits, confirmation (AID 602473); type: functional; conditions: read-out: EC50_Mean
[6] = target: Induced myeloid leukemia cell differentiation protein Mcl-1 (Homo sapiens, UniProt Q07820); type: functional
Cytochrome P450 3A4 = Cytochrome P450 3A4 (Homo sapiens, UniProt P08684);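 further: CYP3A4 tested as one member of a cytochrome P450 panel screen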
[7] = Shn3 3'UTR reporter inhibitors, dose response, cell-based, Clone20 osteoblasts, firefly luciferase, cherry-picked (AID 624132); type: functional;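 further: firefly luciferase luminescence from reporter carrying the Shn3 3'UTR in osteoblasts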
[8] = HepG2 cell cytotoxicity, dose response, cytotoxicity control for Shn3 inhibitor project, CellTiter-Glo, cherry-picked (AID 624134); type: functional, cell-based
[9] = control 3'UTR Renilla luciferase suppression, dose response, counter-screen for Shn3 inhibitor project, cell-based, Clone20-Shn3RL, cherry-picked (AID 624133); type: functional
[10] = target: T2, Heat shock factor protein 1 (Mus musculus, UniProt P38532); test: HSF1 potentiators in luciferase reporter cells, confirmation, cell-based, NIH3T3, luminescence, dose retest (AID 435004); type: functional;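 further: stress induced by proteasome inhibitor MG132 added 30 min after compound; luciferase reporter driven by HSF1 response element in NIH3T3 cells; actives raise luminescence as potentiators of the MG132 stress response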
T2 sequence (P38532 whole entry): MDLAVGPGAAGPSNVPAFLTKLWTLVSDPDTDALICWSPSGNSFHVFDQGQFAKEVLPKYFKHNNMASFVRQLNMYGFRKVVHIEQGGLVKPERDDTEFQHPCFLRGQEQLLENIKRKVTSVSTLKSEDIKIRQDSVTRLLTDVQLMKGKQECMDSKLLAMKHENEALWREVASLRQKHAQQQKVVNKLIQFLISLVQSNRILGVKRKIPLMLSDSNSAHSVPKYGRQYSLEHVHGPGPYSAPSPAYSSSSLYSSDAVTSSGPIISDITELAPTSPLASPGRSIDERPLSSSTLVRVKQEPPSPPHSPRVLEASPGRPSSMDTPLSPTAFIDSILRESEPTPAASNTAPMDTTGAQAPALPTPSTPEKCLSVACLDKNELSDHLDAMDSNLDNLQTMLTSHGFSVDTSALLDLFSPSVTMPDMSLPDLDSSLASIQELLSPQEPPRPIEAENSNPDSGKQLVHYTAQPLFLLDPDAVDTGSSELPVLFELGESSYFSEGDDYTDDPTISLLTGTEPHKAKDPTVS

Nonstructural protein 1 = Nonstructural protein 1 (Influenza A virus, UniProt Q194T2); type: functional, Influenza A virus (A/California/07/2009(H1N1))
Large T antigen = Large T antigen (Simian virus 40, UniProt P03070); type: functional, Betapolyomavirus macacae;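 further: Confirmatory-stage PubChem screen for compounds that inhibit SV40 T antigen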
[11] = target: T3, Ubiquitin-conjugating enzyme E2 N (Homo sapiens, UniProt P61088); type: functional;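 further: Dose-response confirmation in a TR-FRET assay detecting UBC13-driven polyubiquitin chain formation, inhibition measured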
T3 sequence (P61088 whole entry): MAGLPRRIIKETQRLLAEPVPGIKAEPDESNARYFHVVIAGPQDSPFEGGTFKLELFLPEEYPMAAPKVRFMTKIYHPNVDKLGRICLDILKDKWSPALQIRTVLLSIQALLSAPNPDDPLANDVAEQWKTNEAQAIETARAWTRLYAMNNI

Cytochrome P450 2C9 = Cytochrome P450 2C9 (Homo sapiens, UniProt P11712)
Paired box protein Pax-8 = Paired box protein Pax-8 (Homo sapiens, UniProt Q06710); test: inhibitors of PAX8-driven TPO luciferase reporter, dose response, RMG-I cells, cherry-pick (AID 687027); type: functional, cell-based;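 further: luciferase reporter driven by Pax8 target thyroperoxidase promoter measured by SteadyGlo luminescence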
[12] = HEp-2 cell cytotoxicity, dose response, cytotoxicity control for RSV inhibitor project, HTS (AID 2410); type: functional; conditions: human respiratory syncytial virus
[13] = target: T4, Rac GTPase-activating protein 1 (Homo sapiens, UniProt Q9H0H5); test: MgcRacGAP GTPase-activating activity inhibitors, confirmation, biochemical, ADP Hunter fluorescence, primary and confirmatory (AID 624330); type: functional
T4 sequence (Q9H0H5 whole entry): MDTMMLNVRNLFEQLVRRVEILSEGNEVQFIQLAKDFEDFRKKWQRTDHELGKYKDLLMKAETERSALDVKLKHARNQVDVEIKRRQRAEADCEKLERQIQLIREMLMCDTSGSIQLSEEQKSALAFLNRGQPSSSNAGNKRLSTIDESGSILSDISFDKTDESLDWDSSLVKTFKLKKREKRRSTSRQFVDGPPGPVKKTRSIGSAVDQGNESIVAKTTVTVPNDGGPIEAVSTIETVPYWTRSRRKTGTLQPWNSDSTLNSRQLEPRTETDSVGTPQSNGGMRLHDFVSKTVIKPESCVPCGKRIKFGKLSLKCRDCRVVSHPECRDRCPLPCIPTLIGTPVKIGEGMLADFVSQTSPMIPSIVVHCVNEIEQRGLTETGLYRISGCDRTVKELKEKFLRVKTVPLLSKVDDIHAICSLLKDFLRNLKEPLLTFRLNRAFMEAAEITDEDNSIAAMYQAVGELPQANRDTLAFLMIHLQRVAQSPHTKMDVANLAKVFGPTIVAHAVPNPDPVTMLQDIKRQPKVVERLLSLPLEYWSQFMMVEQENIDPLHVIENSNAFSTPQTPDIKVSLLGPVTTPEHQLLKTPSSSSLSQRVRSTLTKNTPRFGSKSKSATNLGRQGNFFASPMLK

[14] = P. falciparum Dd2 growth inhibitors, dose response, SYBR Green, cherry-picked samples (AID 1159567); type: functional, cell-based

In the case of NS(=O)(=O)c1ccc(CCNC(=O)c2ccc([N+](=O)[O-])cc2[N+](=O)[O-])cc1, the EC50 [1] is reported as > 120 µM (not active), the EC50 [2] is reported as > 120 µM (not active) and the EC50 [3] is reported as > 120 µM (not active).
For Cc1c(O)c(CN2CCCCC2)cc2c1oc(=O)c1ccccc12, the IC50 (H9c2) was 6.18 µM (active), the IC50 [4] was > 47.1 µM (inactive) and the EC50 [5] was > 53 µM (inactive).
With Cc1ccc(OCCCC(=O)Nc2ccccc2C(F)(F)F)cc1 the IC50 [6] was > 54 µM (not active) and the AC50 (Cytochrome P450 3A4) was 15.8 µM (inconclusive).
With CCOC(=O)C1(CCOc2ccccc2)CCN(Cc2ccc(OC)c(COC)c2)CC1 the AC50 [7] was 3.87 µM (active), the AC50 [8] was 32.5 µM (active) and the AC50 [9] was 20.5 µM (active).
With O=C(COC(=O)Cn1cnc2ccccc21)Nc1ccc2c(c1)C(=O)c1ccccc1C2=O the IC50 [6] was 6.69 µM (active).
With COc1ccc(C(=O)Cn2c(C(=O)/C=C/c3ccccc3)nc3ccccc32)cc1 the EC50 [10] was 4.59 µM (active), the AC50 [7] was 4.47 µM (active) and the AC50 [8] was 59.1 µM (active).
For O=C(NN=Cc1c(O)ccc2ccccc12)c1ccc[n+](CCO)c1, the IC50 (Nonstructural protein 1) was 3.07 µM (active).
For CN(C)c1ccc(NC(=O)CN2CCC(N3CCCCC3)CC2)cc1, the IC50 (Large T antigen) was 22.9 µM (active).
In the case of COC(=O)c1ccc(CSc2nc(-c3ccccc3)cs2)o1, the IC50 [6] is reported as 3.49 µM (not active).
In the case of COc1ccc(C(c2c(O)cc(C)oc2=O)c2c(O)cc(C)oc2=O)cc1, the IC50 [6] is reported as 1.45 µM (not active).
In the case of Cc1c(Br)c(C(=O)NNC(=O)c2ccc(C(C)(C)C)cc2)nn1C, the IC50 [11] is reported as > 20 µM (inactive).
For COc1cccc(/C=C2/NC(=O)NC2=O)c1OCC(=O)Nc1ccccc1, the EC50 [1] was > 120 µM (not active), the EC50 [2] was > 120 µM (not active) and the EC50 [3] was > 120 µM (not active).
In the case of Cc1ccc2nc(O)c(N=C(N)S)nc2c1, the IC50 [11] is reported as > 20 µM (inactive) and the AC50 (Cytochrome P450 2C9) is reported as 10 µM (inconclusive).
In the case of COC(=O)c1[nH]c2ccc(C)cc2c1NC(=O)C1=COCCO1, the EC50 [1] is reported as > 120 µM (not active), the EC50 [2] is reported as > 120 µM (not active) and the EC50 [3] is reported as > 120 µM (not active).
With Cn1nnnc1Sc1ncnc2scc(-c3ccccc3Cl)c12 the AC50 (Paired box protein Pax-8) was 2.42 µM (active).
For COc1ccc(-c2ccc(Nc3ccc(S(=O)(=O)N4CCCC4)cc3)nn2)cc1OC, the IC50 (H9c2) was > 79 µM (inactive), the AC50 [7] was 20.1 µM (active) and the AC50 [9] was 27.6 µM (active).
For CN(C)C(CNC(=O)c1coc2ccccc2c1=O)c1ccccc1 (centres undefined), the IC50 [11] was > 20 µM (inactive).
With Cn1c(C(=O)NCCOc2ccccc2Cl)cc(=O)n(C)c1=O the EC50 [1] was > 120 µM (not active), the EC50 [2] was > 120 µM (not active) and the EC50 [3] was > 120 µM (not active).
In the case of Cn1c(=O)cc(OCCCC(=O)NCCN2CCN(c3ccccc3F)CC2)c2ccccc21, the IC50 [11] is reported as > 20 µM (inactive), the IC50 [4] is reported as > 47.1 µM (inactive) and the EC50 [5] is reported as > 53 µM (inactive).
With Cc1ccc2nc(-c3ccc(NC(=O)CCS(=O)(=O)c4ccccc4)cc3)sc2c1 the CC50 [12] was 37.3 µM (active), the EC50 [2] was 6.83 µM (active) and the EC50 [3] was 6.26 µM (active).
In the case of NC1=NC[C@H](Cc2ccccc2)N1CCc1cc(C(F)(F)F)cc(C(F)(F)F)c1, the IC50 [11] is reported as > 20 µM (inactive).
For CN1CCN(S(=O)(=O)c2ccc(N(C)Cc3ccc(C(F)(F)F)cc3)c([N+](=O)[O-])c2)CC1, the AC50 [7] was 6.3 µM (active), the AC50 [8] was 45.9 µM (active) and the AC50 [9] was 17.6 µM (active).
With CC[C@@H](C)[C@@H]1CN([C@@H](C)CN2CCC[C@H]2CN2C(N)=NC[C@H]2CC(C)C)C(=N)N1CCc1ccc(Cl)c(Cl)c1 the IC50 [11] was > 20 µM (inactive).
With c1ccc2c(CCN3CCNC[C@H]3Cc3cccc4ccccc34)cccc2c1 the IC50 [11] was > 20 µM (inactive).
In the case of Cc1ccc(OCCCC(=O)Nc2ccc(S(=O)(=O)N3CCOCC3)cc2)cc1, the IC50 [11] is reported as > 20 µM (inactive).
With Cc1ccccc1-c1nnc(S)n1/N=C/C=C/c1ccco1 the IC50 (Large T antigen) was 53 µM (active).
For Cc1cc(-c2nnc(S)n2/N=C/C=C/c2ccco2)[nH]n1, the IC50 (Large T antigen) was 32.1 µM (active).
In the case of O=[N+]([O-])c1cccc(S(=O)(=O)N/N=C/c2ccc(O)cc2)c1, the IC50 (Large T antigen) is reported as 10.6 µM (active) and the IC50 [13] is reported as 49.5 µM (active).
With Cc1cccc(S(=O)(=O)N2C[C@@H]3N[C@H](C2)[C@@H]3c2ccc(-c3cccnc3)cc2)c1 the AC50 [14] was 6 µM (active).
In the case of CCCN(C)C[C@H]1Oc2cc(C#Cc3cccnc3)ccc2S(=O)(=O)N([C@H](C)CO)C[C@H]1C, the AC50 [14] is reported as 3.19 µM (active).
For Cc1ccc(-c2ccc([C@H]3[C@@H](CO)N4C(=O)CN(C(=O)Nc5cccc(F)c5)C[C@H]34)cc2)cc1, the AC50 [14] was 6.09 µM (active).
For CCS(=O)(=O)N1CCC2(CC1)CN(Cc1ccc3c(c1)OCO3)[C@H](CO)c1[nH]c3cc(OC)ccc3c12, the AC50 [14] was 5.03 µM (active).
In the case of C[C@@H]1CN([C@H](C)CO)C(=O)c2c(c3ccccc3n2C)-c2ccccc2CO[C@@H]1CN(C)C(=O)c1cc(Cl)cc(Cl)c1, the AC50 [14] is reported as 3.06 µM (active).
With N#CC(C#N)=C(N)/C(C#N)=C/c1cc(O)c(O)c(O)c1 [TYRPHOSTIN 51] the IC50 (Large T antigen) was 19.8 µM (active).

Source: ChEMBL document CHEMBL1201862, “PubChem BioAssay data set” (2004)
